Test systems include LOX IMVI; MCF7; KM12; HOP-62; SF-295; IGROV-1; UACC-62; K562; SK-OV-3; SNB-75; 786-0; SK-MEL-5; OVCAR-4; RXF 393; RPMI-8226; HCT-116; NCI-H522; CAKI-1; HCT-15; SR.
Holding throughout (experiment): NCI anticancer screen, dose series, 48 h

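Interpolation was linear, between the two tested concentrations surrounding the appropriate level; five concentrations were tested over 48 hours in 96-well plates. GI50 is the concentration that inhibits growth by half.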 Calls of active or inactive are those of the source. Cut-off read from the data, not from the text of the source: active = GI50 up to about 1.1 µM and inactive = higher. A value given as a limit tells only on which side of the number the result lay.

As for `COc1cc(C2C3=C(N=C4SC(C(C)=O)=C(C)N42)c2ccccc2CC3)cc(OC)c1OC` (stereo unspecified), the GI50 in the assay on LOX IMVI is > 100 µM (inactive); with MCF7, 75.5 µM (inactive); with KM12 it was > 100 µM (inactive); in the assay with HOP-62 it was 97.9 µM (inactive); in the assay with SF-295, 68.7 µM (inactive); with IGROV-1, 52 µM (inactive). The GI50 was > 100 µM (inactive) in the assay with UACC-62; 26.4 µM (inactive) in the assay on K562; > 100 µM (inactive) in the assay on SK-OV-3; 53.7 µM (inactive) in the assay with SNB-75; > 100 µM (inactive) in the assay with 786-0; 41.8 µM (inactive) in the assay on SK-MEL-5. Also, the GI50 was > 100 µM (inactive) in the assay with OVCAR-4, 46.8 µM (inactive) in the assay on RXF 393, 13.8 µM (inactive) with RPMI-8226 and > 100 µM (inactive) in the assay on HCT-116.
On to `COc1ccc(C2=C(N)c3c(Cl)cccc3C2=O)cc1`, for which the GI50 in the assay on LOX IMVI was > 100 µM (inactive); with MCF7 it was > 100 µM (inactive); with KM12, > 100 µM (inactive); with HOP-62, 70 µM (inactive); with SF-295, > 100 µM (inactive); in the assay with NCI-H522, > 100 µM (inactive). In addition, the GI50 in the assay on IGROV-1 is > 100 µM (inactive); with UACC-62 it was > 100 µM (inactive); with SK-OV-3, 55.3 µM (inactive); in the assay on SNB-75, > 100 µM (inactive); in the assay on 786-0 it was > 100 µM (inactive); in the assay with SK-MEL-5 it was > 100 µM (inactive). Moreover, the GI50 is > 100 µM (inactive) with OVCAR-4; > 100 µM (inactive) with CAKI-1; greater than 100 µM in the assay with HCT-15; > 100 µM (inactive) in the assay on RPMI-8226; 83.9 µM (inactive) in the assay on HCT-116.
Consider `COC(=O)C1Cc2c([nH]c3ccccc23)C=N1` (stereo unspecified), for which the GI50 in the assay on LOX IMVI was 51.8 µM (inactive); in the assay with KM12 it was 94.2 µM (inactive); with HOP-62, > 100 µM (inactive); in the assay on SF-295, > 100 µM (inactive); with NCI-H522, > 100 µM (inactive); in the assay on IGROV-1 it was > 100 µM (inactive). The GI50 was > 100 µM (inactive) in the assay with UACC-62; > 100 µM (inactive) in the assay on K562; > 100 µM (inactive) with SK-OV-3; 60.8 µM (inactive) in the assay on SNB-75; > 100 µM (inactive) with 786-0; > 100 µM (inactive) with SK-MEL-5. The GI50 is > 100 µM (inactive) with OVCAR-4; > 100 µM (inactive) with SR; > 100 µM (inactive) with RXF 393; > 100 µM (inactive) in the assay on CAKI-1; greater than 100 µM with HCT-15; > 100 µM (inactive) with RPMI-8226. For the same compound, in the assay on HCT-116, the GI50 was > 100 µM (inactive).
On to `N#Cc1c(-c2ccc([N+](=O)[O-])cc2)c(C#N)c(=O)n(NS(=O)(=O)c2ccccc2)c1O`, for which the GI50 in the assay with LOX IMVI, in the assay with MCF7, in the assay with HOP-62, in the assay on SF-295, with NCI-H522 and in the assay with IGROV-1 was > 100 µM (inactive) each time. The GI50 in the assay on UACC-62, in the assay on K562, in the assay with SK-OV-3, with 786-0, with SK-MEL-5 and in the assay with OVCAR-4 was > 100 µM (inactive) throughout. The GI50 is > 100 µM (inactive) in the assay with RXF 393; > 100 µM (inactive) in the assay on CAKI-1; greater than 100 µM in the assay with HCT-15; > 100 µM (inactive) with RPMI-8226; > 100 µM (inactive) with HCT-116.
Regarding `Clc1ccccc1C(n1ncc2ccccc21)n1ncc2ccccc21`, the GI50 in the assay on LOX IMVI is 49.9 µM (inactive); in the assay with KM12, 25.7 µM (inactive); in the assay with HOP-62 it was > 100 µM (inactive); in the assay on SF-295 it was 64.6 µM (inactive); in the assay with NCI-H522 it was 15.1 µM (inactive); in the assay with IGROV-1 it was > 10 µM (inactive). The GI50 in the assay on UACC-62 is > 10 µM (inactive); in the assay on K562, 28.4 µM (inactive); with SK-OV-3 it was > 10 µM (inactive); in the assay on SNB-75, 17 µM (inactive); in the assay on 786-0 it was 65.9 µM (inactive); in the assay with SK-MEL-5 it was 30.4 µM (inactive). The GI50 is 51.6 µM (inactive) with OVCAR-4; 27 µM (inactive) in the assay with SR; 28.3 µM (inactive) with RXF 393; 30.6 µM (inactive) in the assay with CAKI-1; 38.3 µM in the assay with HCT-15; 18.2 µM (inactive) with RPMI-8226. Also, in the assay with HCT-116, the GI50 was 25.6 µM (inactive).
On to `CC(=O)[C@H]1CC[C@@H]2[C@]1(C)CC=C1[C@]23C=C[C@]2(C[C@@H](O)CC[C@]12C)C(C(=O)O)C3C(=O)O` (stereo partly specified), for which the GI50 with LOX IMVI, with MCF7, in the assay with KM12, in the assay on HOP-62, in the assay on SF-295 and with NCI-H522 was > 100 µM (inactive) each time. The GI50 with IGROV-1, with UACC-62, in the assay with K562, in the assay with SK-OV-3, in the assay on SNB-75 and in the assay with 786-0 was > 100 µM (inactive) throughout. Moreover, the GI50 in the assay on SK-MEL-5 is > 100 µM (inactive); with OVCAR-4 it was > 100 µM (inactive); in the assay on CAKI-1, > 100 µM (inactive); in the assay on HCT-15, greater than 100 µM; in the assay with RPMI-8226, > 100 µM (inactive); in the assay on HCT-116 it was > 100 µM (inactive).
Take `O=C(CC1Sc2ccccc2NC1=O)Nc1ccc(Cl)cc1` (stereo unspecified): the GI50 is > 100 µM (inactive) with LOX IMVI; > 100 µM (inactive) in the assay with KM12; > 100 µM (inactive) with HOP-62; > 100 µM (inactive) with SF-295; > 100 µM (inactive) in the assay on NCI-H522; 86.3 µM (inactive) in the assay with IGROV-1. The GI50 with UACC-62 was 23.9 µM (inactive); in the assay on K562, > 100 µM (inactive); with SK-OV-3, > 100 µM (inactive); in the assay with SNB-75 it was 13.1 µM (inactive); with SK-MEL-5, > 100 µM (inactive); in the assay with OVCAR-4, 18.2 µM (inactive). Moreover, the GI50 with SR was > 100 µM (inactive); with RXF 393, 31.1 µM (inactive); in the assay on CAKI-1 it was > 100 µM (inactive); in the assay on HCT-15 it was 75.9 µM; with RPMI-8226 it was > 100 µM (inactive); with HCT-116, 42.9 µM (inactive).
On to `COC(=O)c1sc(=O)n(-c2ccccc2)c1SCc1ccccc1`, for which the GI50 in the assay with LOX IMVI, in the assay with KM12, in the assay on HOP-62, in the assay on SF-295, with NCI-H522 and in the assay on IGROV-1 was > 100 µM (inactive) in each case. The GI50 in the assay on UACC-62, with K562, in the assay with SK-OV-3, in the assay with SNB-75, with 786-0 and with SK-MEL-5 was > 100 µM (inactive) throughout. Moreover, the GI50 was > 100 µM (inactive) in the assay with OVCAR-4; > 100 µM (inactive) in the assay with SR; > 100 µM (inactive) in the assay on RXF 393; greater than 100 µM in the assay with HCT-15; > 100 µM (inactive) in the assay with RPMI-8226; > 100 µM (inactive) in the assay with HCT-116.
Take `O=C1Nc2ccccc2C(=O)/C1=C/NC(=S)NCCc1ccccc1`: the GI50 is > 100 µM (inactive) in the assay with LOX IMVI; > 100 µM (inactive) in the assay with MCF7; 55.3 µM (inactive) in the assay on KM12; > 100 µM (inactive) in the assay on HOP-62; > 100 µM (inactive) in the assay with SF-295; > 100 µM (inactive) in the assay on IGROV-1. Moreover, the GI50 in the assay on UACC-62, in the assay with SK-OV-3, with SNB-75, in the assay on 786-0, in the assay with SK-MEL-5 and in the assay with OVCAR-4 was > 100 µM (inactive) each time. The values for the GI50 in the assay with CAKI-1, in the assay on HCT-15 and in the assay on HCT-116 were > 100 µM (inactive), greater than 100 µM and > 100 µM (inactive), respectively.
Turning to `COc1cc(OC2OC(CO)C(O)C(O)C2O)c2c(O)c3c(=O)cc(C)oc3cc2c1` (stereo unspecified), the GI50 in the assay on LOX IMVI is > 100 µM (inactive); in the assay on MCF7 it was > 100 µM (inactive); in the assay on KM12, > 100 µM (inactive); with HOP-62, > 100 µM (inactive); in the assay on SF-295 it was 65.5 µM (inactive); in the assay with NCI-H522, > 100 µM (inactive). The GI50 with IGROV-1, in the assay with UACC-62, in the assay with K562, with SK-OV-3, in the assay on SNB-75 and in the assay on SK-MEL-5 was > 100 µM (inactive) in each case. Moreover, the GI50 in the assay with OVCAR-4 is > 100 µM (inactive); with CAKI-1 it was > 100 µM (inactive); with HCT-15 it was greater than 100 µM; in the assay on RPMI-8226 it was > 100 µM (inactive); in the assay on HCT-116, > 100 µM (inactive).
For the compound `OCCN1CCN(CCO)Cc2ccccc2OCCOc2ccccc2C1`, the GI50 is 29.8 µM (inactive) in the assay on LOX IMVI; > 100 µM (inactive) in the assay on KM12; > 100 µM (inactive) with HOP-62; > 100 µM (inactive) with NCI-H522; > 100 µM (inactive) in the assay on IGROV-1; > 100 µM (inactive) in the assay with K562. The GI50 in the assay with SK-OV-3 was > 100 µM (inactive); in the assay with SNB-75, 33 µM (inactive); in the assay on 786-0, > 100 µM (inactive); with SK-MEL-5, > 100 µM (inactive); in the assay on OVCAR-4, > 100 µM (inactive); in the assay on SR, > 100 µM (inactive). The GI50 was > 100 µM (inactive) in the assay with RXF 393; > 100 µM (inactive) in the assay with CAKI-1; greater than 100 µM in the assay with HCT-15; > 100 µM (inactive) in the assay with RPMI-8226; 51.6 µM (inactive) in the assay with HCT-116.

Values taken from ChEMBL document CHEMBL1201862, “PubChem BioAssay data set” (2004).
